Experimental data published in ChEMBL document CHEMBL4483862, “Open-source discovery of chemical leads for next-generation chemoprotective antimalarials” (2018).

Test system: Plasmodium berghei
Assay: Luciferase/luciferin-expressing antifolate-resistant parasites were used to infect a culture of HepG2 cells that were pre-incubated with compounds. Infected hepatocytes emit light due to the luciferase reaction. Assay results are presented as the percent inhibition of light emission compared to control. […]
Assay type: functional
Conditions: sporozoite; for IC90: read-out: LUCIFERASE INFECTION ASSAY - IC90
[1] = read-out: LUCIFERASE INFECTION ASSAY - IC50

Row | SMILES | IC90 | other results
1 | CC(C)c1ccc(-n2c(SCc3c(F)cccc3Cl)nnc2-c2ccc(C(C)(C)C)cc2)cc1 | 5.28 µM | IC50 (HEPG2TOX_HILL_SLOPE 7.75, HEPG2TOX_R_SQUARED 0.388, PBLUC_HILL_SLOPE 5.31, PBLUC_R_SQUARED 0.644, read-out: LUCIFERASE INFECTION ASSAY - IC50): 3.49 µM
2 | Cc1cc(C(=O)C(C)OC(=O)c2ccc(S(=O)(=O)N3CC(C)CC(C)C3)cc2)c(C)n1-c1ccc(Cl)cc1 (configuration not stated) | 3.47 µM | IC50 (FFLUC_HILL_SLOPE 16.1, FFLUC_R_SQUARED 0.63, HEPG2TOX_HILL_SLOPE 1.41, HEPG2TOX_R_SQUARED 0.912, PBLUC_HILL_SLOPE 53.4, PBLUC_R_SQUARED 0.359, read-out: LUCIFERASE INFECTION ASSAY - IC50): 3.33 µM
3 | O=C(C1=NNCC1c1ccccc1)c1cc2ccccc2c2ccccc12 (configuration not stated) | > 9.42 µM | IC50 (HEPG2TOX_HILL_SLOPE 2.61, HEPG2TOX_R_SQUARED 0.965, PBLUC_HILL_SLOPE 1.24, PBLUC_R_SQUARED 0.535, read-out: LUCIFERASE INFECTION ASSAY - IC50): 3.17 µM
4 | O=C(Nc1ncccc1O)c1ccc(CN2C(=O)c3ccccc3S2(=O)=O)cc1 | > 10 µM | IC50 (PBLUC_HILL_SLOPE 1.72, 0.775, PBLUC_R_SQUARED 0.614, 0.500, read-out: LUCIFERASE INFECTION ASSAY - IC50): 4.22 µM
5 | CCC1(CC)CC(=O)N(CC(O)COc2ccc(C(C)(C)C)cc2)C1=O (configuration not stated) | > 10 µM | IC50 (PBLUC_HILL_SLOPE 2.11, PBLUC_R_SQUARED 0.442, read-out: LUCIFERASE INFECTION ASSAY - IC50): 5.07 µM
6 | CC(=O)Nc1ccc(-c2cnc3ccc(-c4ccccc4)nn23)cc1 | 3.8 µM | IC50 (HEPG2TOX_HILL_SLOPE 2.97, HEPG2TOX_R_SQUARED 0.938, PBLUC_HILL_SLOPE 2.21, PBLUC_R_SQUARED 0.595, read-out: LUCIFERASE INFECTION ASSAY - IC50): 1.4 µM
7 | CCOC(=O)c1cc(NC(=O)Nc2ccc(Cl)c(Cl)c2)ccc1Oc1cncc(Cl)c1 | 4.18 µM | IC50 (HEPG2TOX_HILL_SLOPE 3.45, HEPG2TOX_R_SQUARED 0.989, PBLUC_HILL_SLOPE 3.28, PBLUC_R_SQUARED 0.474, read-out: LUCIFERASE INFECTION ASSAY - IC50): 2.14 µM
8 | O=C(Nc1cccc(S(=O)(=O)Nc2ccc(Cl)cc2)c1)c1[nH]nc2ccccc12 | > 10 µM | IC50 [1]: 8.98 µM
9 | CCCn1c(=O)n(C)c(=O)c2c(SCc3cccc([N+](=O)[O-])c3)nc(CC(C)C)nc21 | > 10 µM | IC50 [1]: > 10 µM
10 | O=c1c(Cl)cc(C(F)(F)F)cn1Cc1csc(Nc2ccccc2)n1 | > 10 µM | IC50 (HEPG2TOX_HILL_SLOPE 6.73, HEPG2TOX_R_SQUARED 0.639, PBLUC_HILL_SLOPE 3.67, PBLUC_R_SQUARED 0.234, read-out: LUCIFERASE INFECTION ASSAY - IC50): 8.88 µM
11 | COc1ccc(CN2C(=O)N(CC(C)C)C3(CCN(CCCc4ccccc4)CC3)C2=O)cc1 | 4.86 µM | IC50 (HEPG2TOX_HILL_SLOPE 0.288, HEPG2TOX_R_SQUARED 0.281, PBLUC_HILL_SLOPE 3.96, PBLUC_R_SQUARED 0.368, read-out: LUCIFERASE INFECTION ASSAY - IC50): 2.79 µM
12 | OC(c1cn2cc(-c3ccc(F)cc3)nc2s1)(C(F)(F)F)C(F)(F)F | 6.57 µM | IC50 (PBLUC_HILL_SLOPE 0.791, PBLUC_R_SQUARED 0.914, read-out: LUCIFERASE INFECTION ASSAY - IC50): 0.408 µM
13 | Cn1cc(-c2cn3c(-c4cccc(O)c4)cnc3cn2)cn1 | > 11.3 µM | IC50 (HEPG2TOX_HILL_SLOPE 8.37, HEPG2TOX_R_SQUARED 0.807, PBLUC_HILL_SLOPE 3.66, PBLUC_R_SQUARED 0.561, read-out: LUCIFERASE INFECTION ASSAY - IC50): 6.93 µM
14 | Cc1ccccc1-n1c(C)cc(/C=C(\C#N)C(=O)NCC2CCCO2)c1C (configuration not stated) | 6.25 µM | IC50 (PBLUC_HILL_SLOPE 1.57, PBLUC_R_SQUARED 0.725, read-out: LUCIFERASE INFECTION ASSAY - IC50): 1.55 µM
15 | N#Cc1ccc(/C=N/NC(=O)c2ccc(COc3ccccc3-c3ccccc3)cc2)cc1 | 9.24 µM | IC50 (FFLUC_HILL_SLOPE 15.4, FFLUC_R_SQUARED 0.374, HEPG2TOX_HILL_SLOPE 8.76, HEPG2TOX_R_SQUARED 0.561, PBLUC_HILL_SLOPE 30.2, PBLUC_R_SQUARED 0.437, read-out: LUCIFERASE INFECTION ASSAY - IC50): 8.6 µM
16 | CCOc1ccccc1C(=O)N[C@H](C(=O)Nc1sc2c(c1C(N)=O)CCC2)C(C)C | 9.93 µM | IC50 (HEPG2TOX_HILL_SLOPE 7.99, HEPG2TOX_R_SQUARED 0.813, PBLUC_HILL_SLOPE 17.7, PBLUC_R_SQUARED 0.214, read-out: LUCIFERASE INFECTION ASSAY - IC50): 8.77 µM

Row | SMILES | IC90 | other results
17 | CCCC1C/C(=C/c2ccc(C(=O)NC)cc2)C(=O)/C(=C/c2ccc(C(=O)NC)cc2)C1 (configuration not stated) | 3.86 µM | IC50 [1]: 3.29 µM
18 | COc1ccc(-c2nc(C(=O)NC3CC3)cc3c2[nH]c2ccccc23)cc1 | 7.59 µM | IC50 (HEPG2TOX_HILL_SLOPE 1.32, HEPG2TOX_R_SQUARED 0.984, PBLUC_HILL_SLOPE 2.25, PBLUC_R_SQUARED 0.475, read-out: LUCIFERASE INFECTION ASSAY - IC50): 2.85 µM
19 | C=CCn1c(-c2ccc(Cl)cc2Cl)csc1=Nc1ccc(NC(C)=O)cc1 | 6.44 µM | IC50 (PBLUC_HILL_SLOPE 2.47, PBLUC_R_SQUARED 0.472, read-out: LUCIFERASE INFECTION ASSAY - IC50): 2.64 µM
20 | CCOc1ccc(Nc2nc3cc(S(=O)(=O)N(CC)CC)ccc3o2)cc1 | > 10 µM | IC50 (HEPG2TOX_HILL_SLOPE 0.167, HEPG2TOX_R_SQUARED 0.162, read-out: LUCIFERASE INFECTION ASSAY - IC50): > 10 µM
21 | CN(C)c1ccc(-c2cnc3ccc(NCc4ccc5c(c4)OCO5)nn23)cc1 | 3.57 µM | IC50 (HEPG2TOX_HILL_SLOPE 1.81, HEPG2TOX_R_SQUARED 0.969, PBLUC_HILL_SLOPE 2.01, PBLUC_R_SQUARED 0.65, read-out: LUCIFERASE INFECTION ASSAY - IC50): 1.2 µM
22 | Cc1nc(NCCCCCc2n[nH]c(N)c2C#N)c2c(-c3ccccc3)csc2n1 | 7.48 µM | IC50 (HEPG2TOX_HILL_SLOPE 1.31, HEPG2TOX_R_SQUARED 0.867, PBLUC_HILL_SLOPE 3.24, PBLUC_R_SQUARED 0.486, read-out: LUCIFERASE INFECTION ASSAY - IC50): 3.79 µM
23 | CC(C)c1ccc(/C=C2\CCc3c2nc2ccccc2c3C(=O)O)cc1 | 0.0263 µM | IC50 (PBLUC_HILL_SLOPE 81.7, PBLUC_R_SQUARED 0.0337, read-out: LUCIFERASE INFECTION ASSAY - IC50): 0.0256 µM
24 | NS(=O)(=O)c1ccc(CCNc2nn3c(-c4cccc(Cl)c4)cnc3s2)cc1 | > 7.6 µM | IC50 (FFLUC_HILL_SLOPE 1.14, FFLUC_R_SQUARED 0.295, read-out: LUCIFERASE INFECTION ASSAY - IC50): > 7.6 µM
25 | Cc1ccc2nc(NC(=O)c3cccc(F)c3)c(C(=O)NC3CCCCC3)n2c1 | 0.924 µM | IC50 (HEPG2TOX_HILL_SLOPE 1.74, HEPG2TOX_R_SQUARED 0.865, PBLUC_HILL_SLOPE 15.6, PBLUC_R_SQUARED 0.75, read-out: LUCIFERASE INFECTION ASSAY - IC50): 0.803 µM
26 | O=C(CSc1nnc(Cc2cccs2)n1C1CCCCC1)c1c[nH]c2ccccc12 | > 10 µM | IC50 [1]: > 10 µM
27 | COc1ccc(NC=C2C(=O)CC(c3cccs3)CC2=O)cc1 (configuration not stated) | > 10.1 µM | IC50 [1]: > 10.1 µM
28 | CC(=O)c1ccc(N2CCN(Cc3ccc(C)s3)CC2)cc1 | > 10.5 µM | IC50 [1]: > 10.5 µM
29 | COCC(C)n1c(COc2ccccc2F)nnc1SC(C(=O)Nc1cc(C(F)(F)F)ccc1Cl)c1ccccc1 (configuration not stated) | 9.85 µM | IC50 (FFLUC_HILL_SLOPE 3.29, FFLUC_R_SQUARED 0.0514, HEPG2TOX_HILL_SLOPE 2.28, HEPG2TOX_R_SQUARED 0.446, PBLUC_HILL_SLOPE 4.03, PBLUC_R_SQUARED 0.508, read-out: LUCIFERASE INFECTION ASSAY - IC50): 5.71 µM
30 | CCC(CC)CN1C[C@H](OCc2ccccc2)C[C@H]1C(=O)NC(c1ccccc1)c1ccccc1 | > 7.01 µM | IC50 [1]: > 7.01 µM
31 | Cc1occc1C(=O)N/N=C/C=C1\N(C)c2ccccc2C1(C)C | > 10 µM | IC50 [1]: > 10 µM
